Experimental data published in patent publication US20090325911A1, “Use of Androgens for the Treatment of Parkinson's Disease” (CARITAS ST. ELIZABETH MEDICAL CENTER OF BOSTON, INC., priority 2005, published 2009).
Read-outs that look alike come from different tables or passages of the source.

How the values were obtained:
[1] = most potent of the male steroid hormones; cited from earlier work
AKT = conditions: 10 nM DHT
Description: DJ-1 likely serves as a transcriptional co-activator of androgen receptor^50,51. To determine whether androgen receptor and androgen activate the AKT pathway in human dopaminergic cell lines, native SH-SY5Y cells were treated with 10 nM of […], and levels of phosphorylated AKT was assayed by Western blot. […] The role of androgen receptor signaling in the activation of AKT was also tested in SH-SY5Y cells that were transiently transfected with human androgen receptor then treated with […].
(§1) Human CHP-212 cells were purchased from ATCC and maintained in cell culture media, EMEM/F-12 (50%/50%) containing 10% FBS and antibiotics. Native SH-SY5Y cells were maintained in DMEM supplemented with 10% FBS and antibiotics. For immunofluorescence, cells were grown on coverslips. […] Rat tyrosine hydroxylase-luc reporter plasmid (Kim et al Biochem Biophys Res Commun. 2003 Dec. 26; 312(4):950-7) and the pTK-Renilla luciferase plasmid for transfection control were obtained from Promega (Madison, Wis.). Human androgen receptor expression construct PCMV-Flag-AR was kindly provided by Dr. E. Wilson^75. H2O2 and DHT were purchased from Sigma (St. Louis, Mo.).
(§2) The procedures for western blotting and immunoprecipitation were described previously^48. […]

tyrosine hydroxylase [2] = conditions: untransfected CHP-212 cells, DHT 0-1000 nM, forty-eight hours
Description: as §1, §2

tyrosine hydroxylase [3] = conditions: CHP-212 cells pre-transfected with DJ-1-specific siRNA, increasing amount of DHT for forty-eight hours
Description: The procedures for western blotting and immunoprecipitation were described previously^48. For DJ-1 immunoprecipitation, cells were lysed in denaturing RIPA-DOC buffer (50 mm Tris-HCl buffer (pH 8.0), containing 150 mM NaCl, 1% Triton X-100, 0.1% SDS, 1% sodium deoxycholate, 10 mM EDTA and a protease inhibitor cocktail (1× protease cocktail, Roche (Indianapolis, Ind.). For endogenous DJ-1 and PSF co-immunoprecipitation, cells were lysed in non-denaturing lysis buffer containing 1% Triton-X100. […] Antibody used for immunoprecipitation: rabbit polyclonal anti-DJ-15. Antibodies for western blotting include: a mouse monoclonal anti-tyrosine hydroxylase (Sigma); monoclonal (Stressgen, San Diego, Calif.) and polyclonal anti-DJ-1; a goat anti-β-actin (Santa Cruz Biotechnology, Santa Cruz, Calif.); a rabbit polyclonal anti-androgen receptor (Upstate, Charlottesville, Va.); a rabbit polyclonal anti-AKT and a mouse monoclonal anti-Phospho-AKT (Cell signaling, Beverly, Mass.). Antibodies used for immunoprecipitation included a mouse monoclonal anti-PSF (Sigma) and a rabbit polyclonal anti-DJ-1^18.

CHP-212 cells = conditions: DJ-1 siRNA, 10 nM DHT, 300 μM H2O2
Description: Cells were re-plated and pretreated with 10 nM dihydroxytestosterone or vehicle control (ethanol) for twenty-four hours, followed by H2O2 (300 μM) treatment plus 10 nM dihydroxytestosterone or vehicle control for additional 24 hours. Cell toxicity was evaluated by MTT assay. Values are the mean±s.e.m. n=3 experiments; *: P=0.0068 (t-test).
To test whether dihydroxytestosterone can reverse this increased susceptibility, endogenous DJ-1 expression in CHP-212 cells was inhibited using DJ-1-specific siRNA. […] The siRNA treated cells were then further treated with 10 nM of dihydroxytestosterone in the presence or absence of 300 μM of H2O2.
CHP-212 cells or SH-SY5Y cells were plated in six-well culture dishes and transfected with 100 nM of siRNA against human DJ-1 constructs (SMARTpool reagent, Dharmacon, Lafayette, Colo.) or non-specific control siRNA constructs (siControl non-targeting pool, Dharmacon). […] Cells were harvested forty-eight hours post-transfection for RNA extraction or at Day 1,2, or 4 for Western blot or re-plated in 96 well plate for MTS assay at 48 hrs post-transfection.

Description for SH-SY5Y cells: FIG. 8A is a graph that quantifies relative cell viability in SH-SY5Y cells that were pretreated with dihydroxytestosterone (DHT) (1 or 10 nM) or vehicle control (Ethanol) for twenty-four hours, then were subjected to H2O2 (500 μM) treatment plus dihydroxytestosterone (1 or 10 nM) or vehicle control for an additional twenty-four hours. Cell toxicity was evaluated using a 3-(4,5-dimethylthiazol-2-yl)-2,5-diphenyltetrazolium bromide (MTT) assay. […] Cells were re-plated and pretreated with 10 nM dihydroxytestosterone or vehicle control (ethanol) for twenty-four hours, followed by H2O2 (300 μM) treatment plus 10 nM dihydroxytestosterone or vehicle control for additional 24 hours. Cell toxicity was evaluated by MTT assay. Values are the mean±s.e.m. n=3 experiments; *: P=0.0068 (t-test).
To evaluate whether dihydroxytestosterone similarly protects against oxidative stress-induced cell death in human dopaminergic neuroblastoma cells, SH-SY5Y cells were treated with increasing amount of dihydroxytestosterone in the presence or absence of 500 μM of hydrogen peroxide (H2O2). […] The siRNA treated cells were then further treated with 10 nM of dihydroxytestosterone in the presence or absence of 300 μM of H2O2.

C[C@]12CCC(=O)C[C@@H]1CC[C@@H]1[C@@H]2CC[C@]2(C)[C@@H](O)CC[C@@H]12 [dihydroxytestosterone, dihydrotestosterone]
activity relative to testosterone [1]: 10 times | time of peak level of phosphorylated AKT after treatment (AKT; SH-SY5Y cells transiently transfected with Flag-AR): 15 min | time of peak level of phosphorylated AKT after treatment (AKT; native SH-SY5Y cells): ninety | AKT phosphorylation (AKT; native SH-SY5Y cells, 5-90 minutes, no increase of total AKT): rapid phosphorylation of AKT | cell death induced by oxidative stress (SH-SY5Y cells; DHT 1 or 10 nM pretreatment 24 h, then 500 μM H2O2 plus DHT 24 h): significantly blocked cell death | effect on cell viability in the absence of H2O2 (SH-SY5Y cells; DHT 1 or 10 nM, no H2O2): subtle effect | tyrosine hydroxylase protein levels (tyrosine hydroxylase [2]): dose-dependent increase | rescue of tyrosine hydroxylase expression after DJ-1 inactivation (tyrosine hydroxylase [3]): fully rescued | oxidative stress-induced cell death in DJ-1-specific siRNA treated cells (CHP-212 cells): significantly reduced oxidative stress-induced cell death
